Read-outs that look alike come from different tables or passages of the source. Positions of bridges follow the written chain, without caps; N, C: chain ends. Non-standard residues stand in square brackets, D forms with d. Residues, ends and D or L forms follow the SMILES beside them. ξ: configuration not given here. 1Nal = N[C@@H](Cc1cccc2ccccc12)C(=O)O; 2Nal = N[C@@H](Cc1ccc2ccccc2c1)C(=O)O; NMeF = CN[C@@H](Cc1ccccc1)C(=O)O; NMeNle = CCCC[C@H](NC)C(=O)O; NMeV = CN[C@H](C(=O)O)C(C)C; dNle = CCCC[C@@H](N)C(=O)O; NMeA = CN[C@@H](C)C(=O)O; ξV = CC(C)C(N)C(=O)O; ξP = O=C(O)C1CCCN1; Sar = CNCC(=O)O
Experiments:
Hu PD-L1/PD-1 = Hu PD-L1/PD-1 (Homo sapiens, UniProt Q9NZQ7); assay: Cell binding assay Hu PD-L1/PD-1 (Tables 11-13, cell line not given); type: cell-based
Description: The ability of the macrocyclic peptides of the present disclosure to bind to Jurkat, mouse B cell line (LK35.2), and a human lung adenocarcinoma cell line (L2987) was investigated. Jurkat-PD-1 Cell Binding Assay. Phycoerythrin (PE) was covalently linked to the Ig epitope tag of human PD-L1-Ig and fluorescently-labeled PD-L1-Ig was used for binding studies with a Jurkat cell line over-expressing human PD-1 (Jurkat-PD-1). […] Cells were washed 3× in dPBS. Cells were resuspended in 200 μl of dPBS and binding was measured by flow cytometry. LK35.2-hPD-L1 Cell Binding Assay. Phycoerythrin (PE) was covalently linked to the Ig eptitope tag of human PD-1-Ig and fluorescently-labeled PD-1-Ig was used for binding studies with a mouse B cell line (LK35.2) stably over-expressing human PD-L1 (LK35.2-hPD-L1). Briefly, […] LK35.2-hPD-L1 cells were pre-incubated with inhibitor for 15 m in a 30 μl volume of RPMI supplemented with 2% fetal calf serum. 20 μl of PE-labeled PD-1-Ig (2 nM final), diluted in RPMI supplemented with 2% fetal calf serum, was dispensed on top of cells and inhibitor and binding was allowed to take place for 1 h at room temperature. Cells were washed 3× in dPBS. Cells were resuspended in 200 μl of dPBS and binding was measured by flow cytometry. L2987 Cellomics Cell Binding Assay. Phycoerythrin (PE) was covalently linked to the Ig eptitope tag of human PD-1-Ig and fluorescently-labeled PD-1-Ig was used for binding studies with a human lung adenocarcinoma cell line (L2987) which naturally expresses PD-L1. […] The following day, inhibitors were diluted in serum-free DMEM and 25 μl was dispensed on top of cells. […] Samples were incubated for 1 h at 37° C. followed by 2 washes in dPBS and fixation for 30 m with 4% paraformaldehyde. Samples were further washed 2× in dPBS. Hoechst (final 1 μg/ml) was added to final wash to stain nuclei. Plates were processed using a Cellomics […]®.

Human PD-L1/PD-1 = molecular target: T1, Human PD-L1/PD-1 (Homo sapiens, UniProt Q9NZQ7); assay: HTRF PD-1-Ig/PD-L1-His binding assay (human PD-L1); conditions: read-out: HTRF Human PD-L1/PD-1 Binding Assay IC50
T1 construct: made in house; host or cells: HEK293T
How it was run: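 Ig- and His-fused extracellular PD-1/PD-L1 binding in BSA/Tween-20 dPBS. HTRF with Eu anti-Ig (1 nM final) and APC anti-His (20 nM final).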

[1] = Table 8, Compound No. 1 variant macrocyclic peptides
[2] = Table 13, Compound No. 71 series

T1 sequence (Q9NZQ7 with tags, fused parts or gaps): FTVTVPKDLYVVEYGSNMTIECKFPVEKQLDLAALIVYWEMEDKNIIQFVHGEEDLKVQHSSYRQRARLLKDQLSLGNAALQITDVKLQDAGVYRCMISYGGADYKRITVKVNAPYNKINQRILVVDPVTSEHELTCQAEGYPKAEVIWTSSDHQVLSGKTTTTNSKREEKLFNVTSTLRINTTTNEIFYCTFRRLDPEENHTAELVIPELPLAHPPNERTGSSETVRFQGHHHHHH
Chain of Hu PD-L1/PD-1 (Q9NZQ7 19-290): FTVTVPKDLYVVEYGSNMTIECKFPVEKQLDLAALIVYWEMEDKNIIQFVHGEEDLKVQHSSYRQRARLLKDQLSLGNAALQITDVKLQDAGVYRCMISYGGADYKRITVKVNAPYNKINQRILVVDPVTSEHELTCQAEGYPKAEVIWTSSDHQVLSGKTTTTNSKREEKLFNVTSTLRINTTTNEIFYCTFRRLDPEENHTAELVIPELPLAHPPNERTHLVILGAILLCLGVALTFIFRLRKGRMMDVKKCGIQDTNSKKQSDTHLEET

| IC50 (Hu PD-L1/PD-1) | IC50 (Human PD-L1/PD-1; [1]) | Structure (SMILES) | also measured |
| --- | --- | --- | --- |
| – | – | CCCC[C@H]1C(=O)N(C)[C@@H](CCCC)C(=O)N[C@@H](CC(C)C)C(=O)N[C@H](C(=O)NCC(N)=O)CSCC(=O)N[C@@H](Cc2ccccc2)C(=O)N(C)[C@@H](C)C(=O)N[C@@H](CC(N)=O)C(=O)N2CCC[C@H]2C(=O)N[C@@H](Cc2c[nH]cn2)C(=O)N[C@@H](CC(C)C)C(=O)N[C@@H](CO)C(=O)N[C@@H](Cc2c[nH]c3ccccc23)C(=O)N[C@@H](CCCNC(=N)N)C(=O)N[C@@H](Cc2c[nH]c3ccccc23)C(=O)N1C [Compound No. 4] ({CH2CO}-F[NMeA]NPHLSWRW[NMeNle][NMeNle]LCG-NH2; thioether N-14) | IC50 (Hu PD-L1/PD-1; Table 11): 15 nM; IC50 (Human PD-L1/PD-1; Table 6): 15 nM |
| 82 nM | 16 nM | CCCC[C@H]1C(=O)N(C)[C@@H](CCCC)C(=O)N[C@@H](CCCNC(=N)N)C(=O)N[C@H](C(=O)NCC(N)=O)CSCC(=O)N[C@@H](Cc2ccccc2)C(=O)N(C)[C@@H](C)C(=O)N[C@@H](CC(N)=O)C(=O)N2CCCC2C(=O)N[C@@H](C)C(=O)N[C@@H](CC(C)C)C(=O)N(C)CC(=O)N[C@@H](Cc2c[nH]c3ccccc23)C(=O)N[C@@H](CO)C(=O)N[C@@H](Cc2c[nH]c3ccccc23)C(=O)N1C (stereo partly drawn) [Compound No. 10] ({CH2CO}-F[NMeA]N[ξP]AL[Sar]WSW[NMeNle][NMeNle]RCG-NH2; thioether N-14) | – |
| 35 nM | 16 nM | CCCC[C@H]1C(=O)N(C)[C@@H](CCCC)C(=O)N[C@@H](CCCNC(=N)N)C(=O)N[C@H](C(=O)NCC(N)=O)CSCC(=O)N[C@@H](Cc2ccccc2)C(=O)N(C)[C@@H](C)C(=O)N[C@@H](CC(N)=O)C(=O)N2CCCC2C(=O)N[C@@H](Cc2cnc[nH]2)C(=O)N[C@@H](CC(C)C)C(=O)N(C)[C@@H](C)C(=O)N[C@@H](Cc2c[nH]c3ccccc23)C(=O)N[C@@H](CO)C(=O)N[C@@H](Cc2c[nH]c3ccccc23)C(=O)N1C (stereo partly drawn) [Compound No. 13] ({CH2CO}-F[NMeA]N[ξP]HL[NMeA]WSW[NMeNle][NMeNle]RCG-NH2; thioether N-14) | – |
| 13 nM | 5 nM | CCCC[C@H]1C(=O)N(C)[C@@H](CCCC)C(=O)N[C@@H](CCCNC(=N)N)C(=O)N[C@H](C(=O)NCC(N)=O)CSCC(=O)N[C@@H](Cc2ccccc2)C(=O)N(C)[C@@H](C)C(=O)N[C@@H](CC(N)=O)C(=O)N2CCCC2C(=O)N[C@@H](Cc2cnc[nH]2)C(=O)N[C@@H](CC(C)C)C(=O)N(C)CC(=O)N[C@@H](Cc2c[nH]c3ccccc23)C(=O)N[C@@H](C)C(=O)N[C@@H](Cc2c[nH]c3ccccc23)C(=O)N1C (stereo partly drawn) [Compound No. 16] ({CH2CO}-F[NMeA]N[ξP]HL[Sar]WAW[NMeNle][NMeNle]RCG-NH2; thioether N-14) | – |
| 134 nM | 33 nM | CCCC[C@H]1C(=O)N[C@@H](CCCNC(=N)N)C(=O)N[C@H](C(=O)NCC(N)=O)CSCC(=O)N[C@@H](Cc2ccccc2)C(=O)N(C)[C@@H](C)C(=O)N[C@@H](CC(N)=O)C(=O)N2CCCC2C(=O)N[C@@H](Cc2cnc[nH]2)C(=O)N[C@@H](CC(C)C)C(=O)N(C)CC(=O)N[C@@H](Cc2c[nH]c3ccccc23)C(=O)N[C@@H](CO)C(=O)N[C@@H](Cc2c[nH]c3ccccc23)C(=O)N(C)[C@@H](C)C(=O)N1C (stereo partly drawn) [Compound No. 19] ({CH2CO}-F[NMeA]N[ξP]HL[Sar]WSW[NMeA][NMeNle]RCG-NH2; thioether N-14) | – |
| 28 nM | 3 nM | CCCC[C@H]1C(=O)N(C)[C@@H](CCCC)C(=O)N[C@@H](C)C(=O)N[C@H](C(=O)NCC(N)=O)CSCC(=O)N[C@@H](Cc2ccccc2)C(=O)N(C)[C@@H](C)C(=O)N[C@@H](CC(N)=O)C(=O)N2CCCC2C(=O)N[C@@H](Cc2cnc[nH]2)C(=O)N[C@@H](CC(C)C)C(=O)N(C)CC(=O)N[C@@H](Cc2c[nH]c3ccccc23)C(=O)N[C@@H](CO)C(=O)N[C@@H](Cc2c[nH]c3ccccc23)C(=O)N1C (stereo partly drawn) [Compound No. 22] | – |
| 13 nM | 15 nM | CCCC[C@H]1C(=O)N(C)[C@@H](CCCC)C(=O)N[C@@H](CCCNC(=N)N)C(=O)N[C@@H](C(=O)NCC(N)=O)CSCC(=O)N[C@@H](Cc2ccc3ccccc3c2)C(=O)N(C)[C@@H](C)C(=O)N[C@@H](CC(N)=O)C(=O)N2CCC[C@H]2C(=O)N[C@@H](Cc2cnc[nH]2)C(=O)N[C@@H](CC(C)C)C(=O)N(C)CC(=O)N[C@@H](Cc2c[nH]c3ccccc23)C(=O)N[C@@H](CO)C(=O)N[C@@H](Cc2c[nH]c3ccccc23)C(=O)N1C [Compound No. 26] ({CH2CO}-[2Nal][NMeA]NPHL[Sar]WSW[NMeNle][NMeNle]R[dC]G-NH2; thioether N-14) | – |
| 28 nM | 20 nM | CCCC[C@H]1C(=O)N(C)[C@@H](CCCC)C(=O)N[C@@H](CCCNC(=N)N)C(=O)N[C@@H](C(=O)NCC(N)=O)CSCC(=O)N[C@@H](Cc2cccc3ccccc23)C(=O)N(C)[C@@H](C)C(=O)N[C@@H](CC(N)=O)C(=O)N2CCC[C@H]2C(=O)N[C@@H](Cc2cnc[nH]2)C(=O)N[C@@H](CC(C)C)C(=O)N(C)CC(=O)N[C@@H](Cc2c[nH]c3ccccc23)C(=O)N[C@@H](CO)C(=O)N[C@@H](Cc2c[nH]c3ccccc23)C(=O)N1C [Compound No. 27] ({CH2CO}-[1Nal][NMeA]NPHL[Sar]WSW[NMeNle][NMeNle]R[dC]G-NH2; thioether N-14) | – |
| > 10000 nM | – | CCCC[C@H]1C(=O)N(C)[C@@H](CCCC)C(=O)N[C@@H](CCCNC(=N)N)C(=O)N[C@H](C(=O)NCC(N)=O)CSCC(=O)N[C@@H](Cc2ccccc2)C(=O)N(C)[C@@H](C(C)C)C(=O)N[C@@H](CC(N)=O)C(=O)N2CCC[C@H]2C(=O)N[C@@H](Cc2c[nH]cn2)C(=O)N[C@@H](CC(C)C)C(=O)N(C)CC(=O)N[C@@H](Cc2c[nH]c3ccccc23)C(=O)N[C@@H](CO)C(=O)N[C@@H](Cc2c[nH]c3ccccc23)C(=O)N1C [Compound No. 41] ({CH2CO}-F[NMeV]NPHL[Sar]WSW[NMeNle][NMeNle]RCG-NH2; thioether N-14) | – |
| > 10000 nM | – | CCCC[C@H]1C(=O)N(C)[C@@H](CCCC)C(=O)N[C@@H](CCCNC(=N)N)C(=O)N[C@H](C(=O)NCC(N)=O)CSCC(=O)N[C@@H](Cc2ccccc2)C(=O)N(C)[C@@H](C)C(=O)N[C@@H](CC(N)=O)C(=O)N2CCC[C@H]2C(=O)N[C@@H](Cc2cnc[nH]2)C(=O)N[C@@H](CC(C)C)C(=O)N(C)CC(=O)N[C@@H](Cc2c[nH]c3ccccc23)C(=O)N[C@@H](CO)C(=O)N[C@@H](CC(C)C)C(=O)N1C [Compound No. 63] ({CH2CO}-F[NMeA]NPHL[Sar]WSL[NMeNle][NMeNle]RCG-NH2; thioether N-14) | – |
| > 10000 nM | – | CCCC[C@H]1NC(=O)[C@H](Cc2c[nH]c3ccccc23)NC(=O)[C@H](CO)NC(=O)[C@H](Cc2c[nH]c3ccccc23)NC(=O)CN(C)C(=O)[C@H](CC(C)C)NC(=O)[C@H](Cc2cnc[nH]2)NC(=O)[C@@H]2CCCN2C(=O)[C@H](CC(N)=O)NC(=O)[C@H](C)N(C)C(=O)[C@H](Cc2ccccc2)NC(=O)CSC[C@@H](C(=O)NCC(N)=O)NC(=O)[C@H](CCCNC(=N)N)NC(=O)[C@H](CCCC)N(C)C1=O [Compound No. 70] ({CH2CO}-F[NMeA]NPHL[Sar]WSW[dNle][NMeNle]RCG-NH2; thioether N-14) | – |
| – | – | CCCC[C@H]1C(=O)N(C)CC(=O)N[C@@H](CC(=O)O)C(=O)N[C@@H](C(C)C)C(=O)N(C)[C@@H](Cc2ccccc2)C(=O)N[C@@H](Cc2ccc(O)cc2)C(=O)N(C)CC(=O)N[C@@H](Cc2c[nH]c3ccccc23)C(=O)N[C@@H](Cc2ccc(O)cc2)C(=O)N[C@@H](CC(C)C)C(=O)N[C@H](C(=O)NCC(N)=O)CSCC(=O)N[C@@H](C)C(=O)N(C)[C@@H](Cc2ccccc2)C(=O)N1C [Compound No. 72] (HELM PEPTIDE1{[O=C(C[*:3])[*:2]].A.[meF].[CCCC[C@@H](C(=O)[*:2])N(C)[*:1]].[Sar].D.V.[meF].Y.[Sar].W.Y.L.C.G.[am]}$PEPTIDE1,PEPTIDE1,1:R3-14:R3$$$V2.0) | IC50 (Hu PD-L1/PD-1; [2]): > 10000 nM |
| – | – | CCCC[C@H]1C(=O)N(C)CC(=O)N[C@@H](CC(=O)O)C(=O)NC(C(C)C)C(=O)N(C)[C@@H](Cc2ccccc2)C(=O)N[C@@H](Cc2ccc(O)cc2)C(=O)N(C)CC(=O)N[C@@H](Cc2c[nH]c3ccccc23)C(=O)N[C@@H](C)C(=O)N[C@@H](CC(C)C)C(=O)N[C@H](C(=O)NCC(N)=O)CSCC(=O)N[C@@H](Cc2ccccc2)C(=O)N(C)[C@@H](Cc2ccccc2)C(=O)N1C (stereo partly drawn) [Compound No. 86] ({CH2CO}-F[NMeF][NMeNle][Sar]D[ξV][NMeF]Y[Sar]WALCG-NH2; thioether N-13) | IC50 (Hu PD-L1/PD-1; [2]): 7250 nM |
